Measured values as given in patent publication US6573293B2, “Pyrrole substituted 2-indolinone protein kinase inhibitors” (Sugen, Inc., priority 2000, dated 2003).

What was measured:
EGFR [1] = target: T1, EGFR (Homo sapiens, UniProt P00533); assay: EGFR bioassay (bio EGF); format: biochemical
T1 construct: A431 cell lysate (SUGEN, Inc.); host or cells: A431
Description: This assay is used to the in vitro kinase activity of FGF1-R in an ELISA assay.
1. Corning 96-well Elisa plates.
2. SUMO1 monoclonal anti-EGFR antibody (SUGEN, Inc.).
5. Blocking Buffer: for 100 ml, mix 5.0 g Carnation Instant Non-fat Milk® with 100 ml of PBS.
6. A431 cell lysate (SUGEN, Inc.).
9. […] This reagent should be made up immediately prior to use and kept on ice.
11. […] Prepare just prior to use, keep on ice.
12. NUNC 96-well V bottom polypropylene plates.
14. Rabbit polyclonal anti-phosphotyrosine serum (SUGEN, Inc.).
15. Goat anti-rabbit IgG peroxidase conjugate (Biosource Cat. No. ALI0404).
17. 30% Hydrogen peroxide.
1. Coat Corning 96 well ELISA plates with 0.5 μg SUMO1 in 100 μl PBS per well, store overnight at 4° C.
2. Remove unbound SUMO1 from wells by inverting plate to remove liquid. Wash 1×with dH2O. Pat the plate on a paper towel to remove excess liquid.
3. Add 150 μl of Blocking Buffer to each well. Incubate, with shaking, for 30 min. at room temperature.
4. Wash plate 3×with deionized water, then once with TBST. Pat plate on a paper towel to remove excess liquid and bubbles.
5. Dilute lysate in PBS (7 μg lysate/100 μl PBS).
6. Add 100 μl of diluted lysate to each well. Shake at room temperature for 1 hr.
7. Wash plates as in 4, above.
8. Add 120 μl TBS to ELISA plate containing captured EGFR.
10. Add 13.5 μl diluted test compound to ELISA plate. To control wells, add 13.5 μl TBS in 10% DMSO.
11. Incubate, with shaking, for 30 minutes at room temperature.
12. Add 15 μl phosphorylation mix to all wells except negative control well. Final well volume should be approximately 150 μl with 3 μM ATP/5 mM MnCl2 final concentration in each well. Incubate with shaking for 5 minutes.
13. Stop reaction by adding 16.5 μl of EDTA solution while shaking. Shake for additional 1 min.
14. Wash 4×with deionized water, 2×with TBST.
15. Add 100 μl anti-phosphotyrosine (1:3000 dilution in TBST) per well. Incubate, with shaking, for 30-45 min. at room temperature.
17. […] Incubate with shaking for 30 min. at room temperature.
19. Add 100 μl of ABTS/H2O2 solution to each well.
20. Incubate 5 to 10 minutes with shaking. Remove any bubbles.
21. If necessary, stop reaction by adding 100 μl 0.2 M HCl per well.

HER-2 kinase = target: T2, HER-2 kinase (Homo sapiens, UniProt P04626); assay: Cellular HER-2 kinase assay; format: cell-based; conditions: read-out: Her2 Kinase IC50
T2 construct: Use EGFr/HER-2 chimera/3T3-C7 cell line for this assay; It is expressed in mouse NIH 3T3 clone C7 cells; P00533 (Epidermal growth factor receptor)
Description: Cellular HER-2 Kinase Assay
This assay is used to measure HER-2 kinase activity in whole cells in an ELISA format.
Fetal Bovine Serum (FBS, GIBCO Catalog #16000-044), heat inactivated in a water bath for 30 min. at 56° C.
Corning 96-well ELISA Plates.
NUNC 96-well V bottom polypropylene plates.
SUMO 1: monoclonal anti-EGFR antibody (SUGEN, Inc.).
Blocking Buffer: 5% Carnation Instant Milk® in PBS.
Suspend powder in 100 uL of 10 mM HCl. Add 100 uL 10 mM NaOH. Add 800 uL PBS and transfer to an Eppendorf tube, store at −20° C. until ready to use.
Na3VO4. […] Adjust pH to 10. Boil in microwave for one minute (solution becomes clear). Cool to room temperature. Adjust pH to 10. Repeat heating/cooling cycle until pH remains at 10.
Rabbit polyclonal antiserum specific for phosphotyrosine (anti-Ptyr antibody, SUGEN, Inc.).
Affinity purified antiserum, goat anti-rabbit IgG antibody, peroxidase conjugate (Biosource Cat #ALI0404).
30% Hydrogen peroxide solution.
Coat Corning 96 well ELISA plates with SUMO1 at 1.0 ug per well in PBS, 100 ul final volume/well. Store overnight at 4° C.
On day of use, remove coating buffer and wash plate 3 times with dH2O and once with TBST buffer. All washes in this assay should be done in this manner, unless otherwise specified.
Add 100 ul of Blocking Buffer to each well. Incubate plate, with shaking, for 30 min. at room temperature. Just prior to use, wash plate.
Use EGFr/HER-2 chimera/3T3-C7 cell line for this assay.
Choose dishes having 80-90% confluence. Collect cells by trypsinization and centrifuge at 1000 rpm at room temperature for 5 min.
Resuspend cells in starve medium and count with trypan blue. Viability above 90% is required. Seed cells in starve medium at a density of 2,500 cells per well, 90 ul per well, in a 96 well microtiter plate. Incubate seeded cells overnight at 37° under 5% CO2.
Start the assay two days after seeding.
Test compounds are dissolved in 4% DMSO. Samples are then further diluted directly on plates with starve-DMEM. Typically, this dilution will be 1:10 or greater.
Incubate under 5% CO2 at 37° C. for 2 hours.
Prepare fresh HNTG* sufficient for 100 ul per well; place on ice.
After 2 hour incubation with test compound, add prepared EGF ligand to cells, 50 ul per well, for a final concentration of 50 nM. Positive control wells receive the same amount of EGF. […] Incubate at 37° C. for 10 min.
Remove test compound, EGF, and DMEM. Wash cells once with PBS.
Transfer HNTG* to cells, 100 ul per well. Place on ice for 5 minutes. Meanwhile, remove blocking buffer from ELISA plate and wash.
Scrape cells from plate with a micropipettor and homogenize cell material by repeatedly aspirating and dispensing the HNTG* lysis buffer. Transfer lysate to a coated, blocked, washed ELISA plate. Or, use a Costar transfer cartridge to transfer lysate to the plate.
Incubate, with shaking, at room temperature for 1 hr.
Remove lysate, wash. Transfer freshly diluted anti-Ptyr antibody (1:3000 in TBST) to ELISA plate, 100 ul per well.
Incubate, with shaking, at room temperature, for 30 min.
Remove anti-Ptyr antibody, wash. Transfer freshly diluted BIOSOURCE antibody to ELISA plate (1:8000 in TBST, 100 ul per well).
Incubate, with shaking, at room temperature for 30 min.
Remove BIOSOURCE antibody, wash. Transfer freshly prepared ABTS/H2O2 solution to ELISA plate, 100 ul per well.
Stop reaction with the addition of 100 ul of 0.2M HCl per well.

GST-Flk1 = target: T3, GST-Flk1 (Mus musculus, UniProt P35918); assay: GST-FLK-1 bioassay (bio flkGST); format: biochemical
T3 construct: GST-Flk1cd purified from sf9 recombinant baculovirus transformation; host or cells: Sf9 (baculovirus)
Description: This assay analyzes the tyrosine kinase activity of GST-Flk1 on poly(glu,tyr) peptides.
Preparation of poly(glu,tyr)(pEY) coated assay plates: Coat 2 ug/well of poly(glu,tyr)(pEY) in 100 ul PBS, hold at room temperature for 2 hours or at 4° C. overnight. Cover plates well to prevent evaporation.
When all reagents have dissolved, adjust the pH to 7.2 with HCl. Bring total volume to 1 L with dH2O.
PBST Buffer: to 1 L of PBS Buffer, add 1.0 ml Tween-20.
Adjust pH to 7.2 with HCl. Add 10 g BSA, stir to dissolve. Bring total volume to 1 L with dH2O. Filter to remove particulate matter.
Adjust total volume to 1 L with PBS buffer, filter to remove particulate matter.
GST-Flk1cd purified from sf9 recombinant baculovirus transformation (SUGEN, Inc.).
Add 10 N NaOH until EDTA dissolves. Adjust pH to 8.0. Adjust total volume to 100 ml with dH2O.
Anti-phosphotyrosine monoclonal antibody conjugated to horseradish peroxidase (PY99 HRP, Santa Cruz Biotech).
2,2′-Azinobis(3-ethylbenzthiazoline-6-sulfonic acid (ABTS, Moss, Cat. No. ABST).
Coat Corning 96-well ELISA plates with 2 μg of polyEY peptide in sterile PBS as described in step 3 of Materials and Reagents.
Remove unbound liquid from wells by inverting plate. Wash once with TBST. Pat the plate on a paper towel to remove excess liquid.
Add 100 μl of 1% BSA in PBS to each well. Incubate, with shaking, for 1 hr. at room temperature.
Soak wells with 50 mM HEPES (pH7.5) (150 μl/well).
Dilute test compound with dH2O/4% DMSO to 4 times the desired final assay concentration in 96-well polypropylene plates.
Add 25 μl diluted test compound to ELISA plate. In control wells, place 25 μl of dH2O/4% DMSO.
Add 25 μl 0.5M EDTA to negative control wells.
Dilute GST-Flk1 to 0.005 μg (5 ng)/well with KDB.
Add 50 μl of diluted enzyme to each well.
Incubate, with shaking, for 15 minutes at room temperature.
Wash 3×with TBST and pat plate on paper towel to remove excess liquid.
Incubate, with shaking, for 90 min. at room temperature.
Add 100 μl of room temperature ABTS solution to each well.
Stop reaction by adding 20 μl of 10% SDS to each well.

PDGFR-β = target: T4, PDGFR-β (Homo sapiens, UniProt P09619); assay: PDGFR bioassay (bio PDGF); format: biochemical
T4 construct: host or cells: NIH 3T3

EGFR [2] = target: T1, EGFR; assay: cell EGF assay; format: cell-based
Description: Several of the assays described herein are performed in an ELISA (Enzyme-Linked Immunosorbent Sandwich Assay) format (Voller, et al., 1980, “Enzyme-Linked Immunosorbent Assay,” Manual of Clinical Immunology, 2d ed., Rose and Friedman, Am. Soc. Of Microbiology, Washington, D.C., pp. 359-371). The general procedure is as follows: a compound is introduced to cells expressing the test kinase, either naturally or recombinantly, for a selected period of time after which, if the test kinase is a receptor, a ligand known to activate the receptor is added. The cells are lysed and the lysate is transferred to the wells of an ELISA plate previously coated with a specific antibody recognizing the substrate of the enzymatic phosphorylation reaction. Non-substrate components of the cell lysate are washed away and the amount of phosphorylation on the substrate is detected with an antibody specifically recognizing phosphotyrosine compared with control cells that were not contacted with a test compound.

T4 sequence (P09619 33-1106): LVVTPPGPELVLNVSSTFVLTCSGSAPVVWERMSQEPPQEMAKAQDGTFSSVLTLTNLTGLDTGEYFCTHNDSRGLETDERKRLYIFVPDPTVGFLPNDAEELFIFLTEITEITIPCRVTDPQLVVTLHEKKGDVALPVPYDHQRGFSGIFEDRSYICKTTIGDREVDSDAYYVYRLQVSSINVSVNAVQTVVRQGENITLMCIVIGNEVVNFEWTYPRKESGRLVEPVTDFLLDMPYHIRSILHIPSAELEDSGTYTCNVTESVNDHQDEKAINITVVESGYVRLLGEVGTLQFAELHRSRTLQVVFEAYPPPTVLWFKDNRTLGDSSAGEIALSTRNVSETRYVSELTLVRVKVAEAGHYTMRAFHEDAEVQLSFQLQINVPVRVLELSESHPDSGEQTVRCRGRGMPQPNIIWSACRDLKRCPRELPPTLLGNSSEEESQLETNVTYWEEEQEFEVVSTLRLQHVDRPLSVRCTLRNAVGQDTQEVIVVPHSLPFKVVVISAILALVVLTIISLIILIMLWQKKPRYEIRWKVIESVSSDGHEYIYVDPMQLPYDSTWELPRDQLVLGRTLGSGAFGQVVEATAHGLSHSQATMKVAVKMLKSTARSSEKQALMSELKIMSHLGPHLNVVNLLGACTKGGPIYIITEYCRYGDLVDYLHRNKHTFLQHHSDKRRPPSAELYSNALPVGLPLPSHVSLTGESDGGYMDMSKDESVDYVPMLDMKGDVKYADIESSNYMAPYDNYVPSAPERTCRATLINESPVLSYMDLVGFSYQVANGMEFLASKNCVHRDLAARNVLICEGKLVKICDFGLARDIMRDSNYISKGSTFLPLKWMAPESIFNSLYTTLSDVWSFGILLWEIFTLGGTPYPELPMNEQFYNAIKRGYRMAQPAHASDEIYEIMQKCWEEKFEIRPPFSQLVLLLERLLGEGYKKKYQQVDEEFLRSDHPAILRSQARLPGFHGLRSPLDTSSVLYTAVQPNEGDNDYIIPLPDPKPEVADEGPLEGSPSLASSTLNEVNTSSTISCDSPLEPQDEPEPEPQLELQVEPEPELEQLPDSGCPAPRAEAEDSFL
T1 sequence (P00533 25-1210): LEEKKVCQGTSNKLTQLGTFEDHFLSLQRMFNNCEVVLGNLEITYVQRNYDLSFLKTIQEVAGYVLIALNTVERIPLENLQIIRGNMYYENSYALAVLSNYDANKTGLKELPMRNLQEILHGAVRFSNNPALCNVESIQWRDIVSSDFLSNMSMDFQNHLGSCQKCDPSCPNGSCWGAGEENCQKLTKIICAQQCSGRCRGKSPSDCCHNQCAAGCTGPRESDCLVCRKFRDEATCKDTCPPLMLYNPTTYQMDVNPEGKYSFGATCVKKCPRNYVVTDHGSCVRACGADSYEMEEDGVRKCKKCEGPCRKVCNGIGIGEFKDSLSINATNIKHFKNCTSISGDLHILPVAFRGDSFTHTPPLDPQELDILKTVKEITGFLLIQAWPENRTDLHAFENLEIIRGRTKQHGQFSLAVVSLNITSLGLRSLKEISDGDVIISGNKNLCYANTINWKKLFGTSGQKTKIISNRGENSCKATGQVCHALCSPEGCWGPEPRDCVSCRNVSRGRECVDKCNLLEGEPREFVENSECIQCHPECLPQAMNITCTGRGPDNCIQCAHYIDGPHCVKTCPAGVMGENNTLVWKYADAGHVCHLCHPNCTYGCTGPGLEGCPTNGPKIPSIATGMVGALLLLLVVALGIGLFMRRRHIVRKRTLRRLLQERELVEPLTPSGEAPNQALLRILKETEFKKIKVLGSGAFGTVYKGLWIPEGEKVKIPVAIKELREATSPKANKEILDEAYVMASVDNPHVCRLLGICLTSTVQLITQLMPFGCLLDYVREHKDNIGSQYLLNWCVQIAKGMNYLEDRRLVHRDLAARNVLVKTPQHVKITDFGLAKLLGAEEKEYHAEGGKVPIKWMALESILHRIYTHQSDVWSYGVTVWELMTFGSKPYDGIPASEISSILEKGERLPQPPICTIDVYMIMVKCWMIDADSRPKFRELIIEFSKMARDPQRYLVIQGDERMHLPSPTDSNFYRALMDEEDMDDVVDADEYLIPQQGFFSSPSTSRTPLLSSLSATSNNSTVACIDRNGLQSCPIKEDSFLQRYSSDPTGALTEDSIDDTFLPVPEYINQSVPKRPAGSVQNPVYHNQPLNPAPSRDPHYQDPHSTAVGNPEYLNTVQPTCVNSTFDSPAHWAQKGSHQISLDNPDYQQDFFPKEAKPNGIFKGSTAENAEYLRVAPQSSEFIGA
T2 sequence (P04626 720-987 limits assumed): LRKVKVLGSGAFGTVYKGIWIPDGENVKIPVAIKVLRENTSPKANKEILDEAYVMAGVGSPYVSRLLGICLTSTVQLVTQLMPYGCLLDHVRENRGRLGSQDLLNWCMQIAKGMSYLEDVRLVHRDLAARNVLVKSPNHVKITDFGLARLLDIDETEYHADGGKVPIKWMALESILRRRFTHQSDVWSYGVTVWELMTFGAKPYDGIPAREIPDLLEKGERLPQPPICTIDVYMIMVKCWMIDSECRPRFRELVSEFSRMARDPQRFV
T3 sequence (P35918 784-1345 limits assumed): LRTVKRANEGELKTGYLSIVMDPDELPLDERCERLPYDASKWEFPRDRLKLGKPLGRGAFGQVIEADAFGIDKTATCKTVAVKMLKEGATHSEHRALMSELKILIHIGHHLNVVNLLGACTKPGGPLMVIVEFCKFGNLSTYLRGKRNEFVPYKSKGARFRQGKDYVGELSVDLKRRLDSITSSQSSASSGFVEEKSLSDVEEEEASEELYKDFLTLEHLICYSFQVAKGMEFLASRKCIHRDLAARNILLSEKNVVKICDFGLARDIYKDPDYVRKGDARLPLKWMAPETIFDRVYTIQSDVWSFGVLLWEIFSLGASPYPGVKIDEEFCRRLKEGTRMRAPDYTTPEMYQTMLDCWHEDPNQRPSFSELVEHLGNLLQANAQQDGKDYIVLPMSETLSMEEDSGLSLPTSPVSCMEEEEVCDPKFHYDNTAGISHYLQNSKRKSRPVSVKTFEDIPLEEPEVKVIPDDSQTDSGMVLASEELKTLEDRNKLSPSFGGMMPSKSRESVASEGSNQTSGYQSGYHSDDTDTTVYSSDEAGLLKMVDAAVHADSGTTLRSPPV

CCN(CC)CCCNC(=O)c1cc(C)c(/C=C2\C(=O)Nc3ccc(Br)cc32)[nH]1 [Example 7, 5-(5-Bromo-2-oxo-1,2-dihydroindol-3-ylidenemethyl)-4-methyl-1H-pyrrole-2-carboxylic acid (3-diethylaminopropyl)amide]
IC50 (EGFR [1]): 5.07 µM | IC50 (HER-2 kinase): 4.24 µM | IC50 (GST-Flk1): 7.74 µM | IC50 (PDGFR-β): > 100 µM | IC50 (EGFR [2]): 9.8 µM

CCN(CC)CCNC(=O)c1ccc(/C=C2\C(=O)Nc3ccc(Br)cc32)[nH]1 [Example 8, 5-(5-Bromo-2-oxo-1,2-dihydroindol-3-ylidenemethyl)-1H-pyrrole-2-carboxylic acid (2-diethylaminoethyl)amide]
IC50 (EGFR [1]): 51.3 µM | IC50 (HER-2 kinase): 5.5 µM | IC50 (GST-Flk1): 12.1 µM | IC50 (PDGFR-β): > 100 µM | IC50 (EGFR [2]): 20.1 µM

CCN(CC)CCNC(=O)c1ccc(/C=C2\C(=O)Nc3cc(-c4ccccc4)ccc32)[nH]1 [Example 9, 5-(2-Oxo-6-phenyl-1,2-dihydroindol-3-ylidenemethyl)-1H-pyrrole-2-carboxylic acid (2-diethylaminoethyl)amide]
IC50 (EGFR [1]): > 100 µM | IC50 (HER-2 kinase): 16.4 µM | IC50 (GST-Flk1): 0.96 µM | IC50 (PDGFR-β): > 100 µM | IC50 (EGFR [2]): > 100 µM

CCN(CC)CCN(C)C(=O)c1ccc(/C=C2\C(=O)Nc3ccc(Br)cc32)[nH]1 [Example 10, 5-(5-Bromo-2-oxo-1,2-dihydroindol-3-ylidenemethyl)-1H-pyrrole-2-carboxylic acid (2-diethylaminoethyl)methylamide]
IC50 (EGFR [1]): 94 µM | IC50 (HER-2 kinase): 8.06 µM | IC50 (GST-Flk1): 5.72 µM | IC50 (PDGFR-β): > 100 µM | IC50 (EGFR [2]): 15.9 µM

CCN(CC)CCN(C)C(=O)c1ccc(/C=C2\C(=O)Nc3cc(-c4ccccc4)ccc32)[nH]1 [Example 11, 5-(2-Oxo-6-phenyl-1,2-dihydroindol-3-ylidenemethyl)-1H-pyrrole-2-carboxylic acid (2-diethylaminoethyl)methylamide]
IC50 (EGFR [1]): > 100 µM | IC50 (HER-2 kinase): > 100 µM | IC50 (GST-Flk1): 9.77 µM | IC50 (PDGFR-β): > 100 µM | IC50 (EGFR [2]): > 100 µM

CCN(CC)CCCNC(=O)c1c(C(C)C)[nH]c(/C=C2\C(=O)Nc3ccc(Br)cc32)c1-c1ccccc1 [Example 37, 5-(5-Bromo-2-oxo-1,2-dihydroindol-3-ylidenemethyl)-2-isopropyl-4-phenyl-1H-pyrrole-3-carboxylic acid (3-diethylaminopropyl)amide]
IC50 (EGFR [1]): 10.8 µM | IC50 (HER-2 kinase): 1.4 µM | IC50 (GST-Flk1): 0.22 µM | IC50 (PDGFR-β): 3.06 µM | IC50 (EGFR [2]): 9.84 µM

CC(C)c1[nH]c(/C=C2\C(=O)Nc3ccc(Br)cc32)c(-c2ccccc2)c1C(=O)NCCCN1CCCC1 [Example 38, 5-(5-Bromo-2-oxo-1,2-dihydroindol-3-ylidenemethyl)-2-isopropyl-4-phenyl-1H-pyrrole-3-carboxylic acid (3-pyrrolidin-1-ylpropyl)amide]
IC50 (EGFR [1]): 6.04 µM | IC50 (HER-2 kinase): 2.16 µM | IC50 (GST-Flk1): 4.17 µM | IC50 (PDGFR-β): 3.06 µM | IC50 (EGFR [2]): 8.97 µM

CCN(CC)CCNC(=O)c1c(C(C)C)[nH]c(/C=C2\C(=O)Nc3ccc(Br)cc32)c1-c1ccccc1 [Example 39, 5-(5-Bromo-2-oxo-1,2-dihydroindol-3-ylidenemethyl)-2-isopropyl-4-phenyl-1H-pyrrole-3-carboxylic acid (2-diethylaminoethyl)amide]
IC50 (EGFR [1]): 3.67 µM | IC50 (HER-2 kinase): 3.53 µM | IC50 (GST-Flk1): 3.38 µM | IC50 (PDGFR-β): 4.69 µM | IC50 (EGFR [2]): 14.5 µM

Cc1[nH]c(/C=C2\C(=O)Nc3ccc(Br)cc32)c(-c2ccccc2)c1C(=O)NCCN1CCCC1 [Example 42, 5-(5-Bromo-2-oxo-1,2-dihydroindol-3-ylidenemethyl)-2-methyl-4-phenyl-1H-pyrrole-3-carboxylic acid (2-pyrrolidin-1-yl-ethyl)amide]
IC50 (EGFR [1]): 12 µM | IC50 (HER-2 kinase): 20.4 µM | IC50 (GST-Flk1): 0.1 µM | IC50 (PDGFR-β): 0.12 µM | IC50 (EGFR [2]): 74.6 µM

COc1ccccc1-c1ccc2c(c1)NC(=O)/C2=C\c1[nH]c(C)c(C(=O)NCCN2CCCC2)c1-c1ccccc1 [Example 43, 5-[6-(2-Methoxy-phenyl)-2-oxo-1,2-dihydroindol-3-ylidenemethyl]-2-methyl-4-phenyl-1H-pyrrole-3-carboxylic acid (2-pyrrolidin-1-yl-ethyl)amide]
IC50 (HER-2 kinase): 53.4 µM | IC50 (GST-Flk1): 1.12 µM | IC50 (PDGFR-β): 8.38 µM | IC50 (EGFR [2]): 37.3 µM

Cc1[nH]c(/C=C2\C(=O)Nc3ccc(Br)cc32)c(-c2ccccc2)c1C(=O)NCCN(C)C [Example 44, 5-(5-Bromo-2-oxo-1,2-dihydroindol-3-ylidenemethyl)-2-methyl-4-phenyl-1H-pyrrole-3-carboxylic acid (2-dimethylamino-ethyl)amide]
IC50 (EGFR [1]): 20.7 µM | IC50 (HER-2 kinase): 6.99 µM | IC50 (GST-Flk1): < 0.05 µM | IC50 (PDGFR-β): 0.02 µM | IC50 (EGFR [2]): 67.5 µM

CCOC(=O)c1c(C)[nH]c(/C=C2\C(=O)Nc3ccc(Br)cc32)c1-c1ccccc1 [Example 46, 5-(5-Bromo-2-oxo-1,2-dihydroindol-3-ylidenemethyl)-2-methyl-4-phenyl-1H-pyrrole-3-carboxylic acid ethyl ester]
IC50 (EGFR [1]): > 100 µM | IC50 (HER-2 kinase): > 100 µM | IC50 (GST-Flk1): 30.6 µM | IC50 (PDGFR-β): 6.18 µM | IC50 (EGFR [2]): > 100 µM

COc1cccc(-c2ccc3c(c2)NC(=O)/C3=C\c2[nH]c(C)c(C(=O)NCCN(C)C)c2C)c1 [Example 55, 5-[6-(3-Methoxy-phenyl)-2-oxo-1,2-dihydroindol-3-ylidenemethyl]-2,4-dimethyl-1H-pyrrole-3-carboxylic acid (2-dimethylamino-ethyl)amide]
IC50 (EGFR [1]): 6.03 µM | IC50 (HER-2 kinase): 77.8 µM | IC50 (GST-Flk1): 0.27 µM | IC50 (PDGFR-β): 0.53 µM | IC50 (EGFR [2]): 36 µM

CCN(CC)CCNC(=O)c1c(C)[nH]c(/C=C2\C(=O)Nc3ccc(-c4ccccc4)cc32)c1C [Example 56, 2,4-Dimethyl-5-(2-oxo-5-phenyl-1,2-dihydroindol-3-ylidenemethyl)-1H-pyrrole-3-carboxylic acid (2-diethylaminoethyl)amide]
IC50 (EGFR [1]): > 100 µM | IC50 (HER-2 kinase): 7.11 µM | IC50 (GST-Flk1): 2.32 µM | IC50 (PDGFR-β): 3.19 µM | IC50 (EGFR [2]): 10 µM

Cc1[nH]c(/C=C2\C(=O)Nc3ccc(-c4ccccc4)cc32)c(C)c1C(=O)NCCN1CCCC1 [Example 57, 2,4-Dimethyl-5-(2-oxo-5-phenyl-1,2-dihydroindol-3-ylidenemethyl)-1H-pyrrole-3-carboxylic acid (2-pyrrolidin-1-yl-ethyl)amide]
IC50 (EGFR [1]): > 100 µM | IC50 (HER-2 kinase): 6.94 µM | IC50 (GST-Flk1): 0.06 µM | IC50 (PDGFR-β): 7.98 µM | IC50 (EGFR [2]): 9.97 µM

Cc1[nH]c(/C=C2\C(=O)Nc3cc(-c4cccnc4)ccc32)c(C)c1C(=O)NCCN1CCCC1 [Example 64, 2,4-Dimethyl-5-(2-oxo-6-pyridin-3-yl-1,2-dihydroindol-3-ylidenemethyl)-1H-pyrrole-3-carboxylic acid (2-pyrrolidin-1-yl-ethyl)amide]
IC50 (EGFR [1]): 30.5 µM | IC50 (HER-2 kinase): > 100 µM | IC50 (GST-Flk1): 0.55 µM | IC50 (PDGFR-β): < 0.78 µM | IC50 (EGFR [2]): > 100 µM

Cc1[nH]c(/C=C2\C(=O)Nc3cc(-c4cccnc4)ccc32)c(C)c1C(=O)NCCCN(C)C [Example 65, 2,4-Dimethyl-5-(2-oxo-6-pyridin-3-yl-1,2-dihydroindol-3-ylidenemethyl)-1H-pyrrole-3-carboxylic acid (3-dimethylamino-propyl)amide]
IC50 (EGFR [1]): > 100 µM | IC50 (HER-2 kinase): 16 µM | IC50 (GST-Flk1): 0.37 µM | IC50 (PDGFR-β): < 0.05 µM | IC50 (EGFR [2]): 74.4 µM

CCN(CC)CCCNC(=O)c1c(C)[nH]c(/C=C2\C(=O)Nc3ccc(-c4ccccc4)cc32)c1C [Example 67, 2,4-Dimethyl-5-(2-oxo-5-phenyl-1,2-dihydroindol-3-ylidenemethyl)-1H-pyrrole-3-carboxylic acid (3-diethylaminopropyl)amide]
IC50 (EGFR [1]): 31.4 µM | IC50 (HER-2 kinase): 2.56 µM | IC50 (GST-Flk1): 0.39 µM | IC50 (PDGFR-β): 24.8 µM | IC50 (EGFR [2]): 19.8 µM

CCN(CC)CCCNC(=O)c1c(C)[nH]c(/C=C2\C(=O)Nc3cc(-c4ccccc4)ccc32)c1C [Example 68, 2,4-Dimethyl-5-(2-oxo-6-phenyl-1,2-dihydroindol-3-ylidenemethyl)-1H-pyrrole-3-carboxylic acid (3-diethylaminopropyl)amide]
IC50 (HER-2 kinase): 34.1 µM | IC50 (GST-Flk1): 1.16 µM | IC50 (PDGFR-β): 0.03 µM | IC50 (EGFR [2]): 23.5 µM

CCN(CC)CCCNC(=O)c1c(C(C)C)[nH]c(/C=C2\C(=O)Nc3ccc(Br)cc32)c1C(C)C [Example 72, 5-(5-Bromo-2-oxo-1,2-dihydroindol-3-ylidenemethyl)-2,4-diisopropyl-1H-pyrrole-3-carboxylic acid (3-diethylaminopropyl)amide]
IC50 (EGFR [1]): > 100 µM | IC50 (HER-2 kinase): 9.65 µM | IC50 (GST-Flk1): 6.06 µM | IC50 (PDGFR-β): 10.5 µM | IC50 (EGFR [2]): 39.9 µM

CC(C)c1[nH]c(/C=C2\C(=O)Nc3ccc(Br)cc32)c(C(C)C)c1C(=O)NCCCN1CCCC1 [Example 73, 5-(5-Bromo-2-oxo-1,2-dihydroindol-3-ylidenemethyl)-2,4-diisopropyl-1H-pyrrole-3-carboxylic acid (3-pyrrolidin-1-ylpropyl)amide]
IC50 (EGFR [1]): > 100 µM | IC50 (HER-2 kinase): 8.59 µM | IC50 (GST-Flk1): 5.95 µM | IC50 (PDGFR-β): 14.1 µM | IC50 (EGFR [2]): 39.5 µM
